Measurements from ChEMBL document CHEMBL5500412, “Discovery of Highly Selective, Potent, Covalent, and Orally Bioavailable Factor XIIa Inhibitors for the Treatment of Thrombo-Inflammation” (J Med Chem, 2024).
Calls of active or inactive are those of the source. The rule behind the calls is not given here.

Assays:
Mus musculus [1] = assay: Antithrombotic activity in carrageenan induced thrombosis in male BALB/c mouse model assessed as reduction in tail thrombosis administered as IG dose preadministered with PBS for 7 days followed by carrageenan stimulation on day 7 and measured after 2 days post compound administration; assay type: functional, organism-based; details: dose 10-30 mg/kg, time 2.0 day
[2] = Stability of the compound in water under acidic condition at pH 3 measured after 48 hrs; assay type: physicochemical; details: buffer, pH 3, 48 h
[3] = Stability of the compound in water at pH 5 to 7 measured after 48 hrs; assay type: physicochemical; details: buffer, pH 5, 48 h
[4] = Selectivity index, ratio of IC50 for chymotrypsin (unknown origin) to IC50 for FXIIa (unknown origin)
Plasma [5] = assay: Anticoagulant activity in human plasma assessed as prolongation of activated partial thromboplastin time at 300 uM incubated for 2 mins by aPTT reagent based assay relative to control; assay type: functional
Chymotrypsin = Chymotrypsin (Homo sapiens, UniProt Q99895+P17538+P40313+Q6GPI1); assay: Inhibition of Chymotrypsin (unknown origin) using N-Suc-Ala-Ala-Pro-Phe-pNA as chromogenic substrate incubated for 20 mins followed by substrate addition by spectrophotometric analysis; assay type: protein assay
Plasma [6] = assay: Anticoagulant activity in human plasma assessed as prolongation of activated partial thromboplastin time incubated for 2 mins by aPTT reagent based assay; assay type: functional
Plasma [7] = assay: Anticoagulant activity in mouse plasma at 25 uM measures upto 20 mins by aPTT reagent based analysis; assay type: functional, cell-free
Mus musculus [8] = assay: Antithrombotic activity in carrageenan induced thrombosis in male BALB/c mouse model assessed as inhibition of tail thrombosis at 20 mg/kg, IG administered for 9 days with carrageenan stimulation on day 7 by H and E staining based analysis; assay type: functional, organism-based; details: time 9.0 day
Plasma kallikrein = Plasma kallikrein (Homo sapiens, UniProt P03952); assay: Inhibition of PKal (unknown origin) using H-D-Pro-Phe-Arg-pNA-2HCl as substrate incubated for 20 mins followed by substrate addition by spectrophotometric analysis
Plasma [9] = assay: Anticoagulant activity in human blood plasma at 75 uM measures upto 20 mins by aPTT reagent based analysis; assay type: functional, cell-free
[10] = Stability of the compound in water under […] condition at pH 11 measured after 48 hrs; assay type: physicochemical; details: buffer, pH 11, 48 h
RAW264.7 [11] = assay: Cytotoxicity against mouse RAW264.7 cells assessed as reduction in cell viability at upto 40 uM by CCK-8 assay; assay type: toxicity, cell-based; details: raw264.7, 40 µM
[12] = Selectivity index, ratio of IC50 for plasmin (unknown origin) to IC50 for FXIIa (unknown origin)
[13] = Selectivity index, ratio of IC50 for thrombin (unknown origin) to IC50 for FXIIa (unknown origin)
Mus musculus [14] = assay: Antiinflammatory activity in carrageenan-induced thrombosis in male BALB/c mouse model assessed as reduction in IL-6 level at 20 mg/kg, po by ELISA method; assay type: functional, organism-based
Plasma [15] = assay: Anticoagulant activity in human plasma assessed as prolongation of […] time at 300 uM incubated for 2 mins by PT reagent based assay; assay type: functional, cell-free
[16] = Selectivity index, ratio of IC50 for tPA (unknown origin) to IC50 for FXIIa (unknown origin)
Plasma [17] = assay: Selectivity ratio of anticoagulant activity in non-activated human plasma at 10 to 25 uM measured after 260 mins to anticoagulant activity in non-activated human plasma at 10 to 25 uM measured after 2 mins; assay type: functional; details: dose 10-25 µM, 4.333 h
Plasminogen = Plasminogen (Homo sapiens, UniProt P00747); assay: Inhibition of plasmin (unknown origin) using PyroGlu-Phe-Lys-pNA.HCl as chromogenic substrate incubated for 20 mins followed by substrate addition by spectrophotometric analysis
Mus musculus [18] = assay: Antiinflammatory activity in carrageenan-induced thrombosis in male BALB/c mouse model assessed as reduction in IL-1 beta level at 20 mg/kg, po by ELISA method; assay type: functional, organism-based
Mus musculus [19] = assay: Antithrombotic activity in carrageenan induced thrombosis in male BALB/c mouse model assessed as thrombosis rate at 30 mg/kg, IG preadministered with PBS for 7 days followed by carrageenan stimulation on day 7 and measured after 2 days post compound administration relative to control; assay type: functional; details: time 2 day
[20] = Selectivity index, ratio of IC50 for FXa (unknown origin) to IC50 for FXIIa (unknown origin)
RAW264.7 [21] = assay: Antiinflammatory activity in mouse RAW264.7 cells assessed as inhibition of LPS-induced IL-1 beta expression preincubated for 12 hrs followed by LPS stimulation and measured after 12 hrs by real time quantitative RT-PCR assay; assay type: functional, cell-based; details: dose 5-10 µM, time 24.0 hrs
RAW264.7 [22] = assay: Antiinflammatory activity in mouse RAW264.7 cells assessed as inhibition of LPS-induced IL-6 expression preincubated for 12 hrs followed by LPS stimulation and measured after 12 hrs by real time quantitative RT-PCR assay; assay type: functional, cell-based; details: dose 5-10 µM, time 24.0 hrs
[23] = Selectivity index, ratio of IC50 for FXIa (unknown origin) to IC50 for FXIIa (unknown origin)
[24] = Selectivity index, ratio of IC50 for PKal (unknown origin) to IC50 for FXIIa (unknown origin)
Coagulation factor X = Coagulation factor X (Homo sapiens, UniProt P00742); assay: Inhibition of FXa (unknown origin) using Z-D-Arg-Gly-Arg-pNA.2HCl as chromogenic substrate incubated for 20 mins followed by substrate addition by spectrophotometric analysis
Trypsin = Trypsin (Homo sapiens, UniProt P07477+P07478+P35030); assay: Inhibition of trypsin (unknown origin) using Bz-lle-Glu(gamma-OR)-Gly-Arg-pNA.HCl as chromogenic substrate incubated for 20 mins followed by substrate addition by spectrophotometric analysis; assay type: protein assay
Coagulation factor XI = Coagulation factor XI (Homo sapiens, UniProt P03951); assay: Inhibition of FXIa (unknown origin) using p-Glu-Pro-Arg-pNA.HCl as chromogenic substrate incubated for 20 mins followed by substrate addition by spectrophotometric analysis
RAW264.7 [25] = assay: Antiinflammatory activity in mouse RAW264.7 cells assessed as inhibition of LPS-induced IL-1 beta expression at 10 uM preincubated for 12 hrs followed by LPS stimulation and measured after 12 hrs by real time quantitative RT-PCR assay; assay type: functional, cell-based; details: time 24.0 hrs
RAW264.7 [26] = assay: Antiinflammatory activity in mouse RAW264.7 cells assessed as inhibition of LPS-induced IL-6 expression at 10 uM preincubated for 12 hrs followed by LPS stimulation and measured after 12 hrs by real time quantitative RT-PCR assay; assay type: functional, cell-based; details: time 24.0 hrs
Prothrombin = Prothrombin (Homo sapiens, UniProt P00734); assay: Inhibition of thrombin (unknown origin) using H-D-Phe-Pip-Arg-pNA-2HCl as substrate incubated for 20 mins followed by substrate addition by spectrophotometric analysis
[27] = target: Tissue-type plasminogen activator (Homo sapiens, UniProt P00750); assay: Inhibition of tPA (unknown origin) using H-D-lle-Pro-Arg-pNA-2HCl as chromogenic substrate incubated for 20 mins followed by substrate addition by spectrophotometric analysis
[28] = Selectivity index, ratio of IC50 for trypsin (unknown origin) to IC50 for FXIIa (unknown origin)

Sequence of Coagulation factor X (P00742 41-179 limits assumed): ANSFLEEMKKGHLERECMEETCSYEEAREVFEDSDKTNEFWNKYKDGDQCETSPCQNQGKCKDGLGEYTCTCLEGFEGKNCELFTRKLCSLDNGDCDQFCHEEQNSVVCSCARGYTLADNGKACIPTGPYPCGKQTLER
Sequence of Coagulation factor X (P00742 235-488 limits assumed): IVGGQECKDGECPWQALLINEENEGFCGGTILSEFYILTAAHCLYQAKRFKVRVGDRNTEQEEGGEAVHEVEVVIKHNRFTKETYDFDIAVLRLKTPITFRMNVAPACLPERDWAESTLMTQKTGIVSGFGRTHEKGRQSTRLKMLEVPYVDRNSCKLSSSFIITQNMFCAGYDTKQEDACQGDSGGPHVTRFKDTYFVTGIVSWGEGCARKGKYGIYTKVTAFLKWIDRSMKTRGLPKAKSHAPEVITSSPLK
Sequence of Tissue-type plasminogen activator (P00750 whole entry): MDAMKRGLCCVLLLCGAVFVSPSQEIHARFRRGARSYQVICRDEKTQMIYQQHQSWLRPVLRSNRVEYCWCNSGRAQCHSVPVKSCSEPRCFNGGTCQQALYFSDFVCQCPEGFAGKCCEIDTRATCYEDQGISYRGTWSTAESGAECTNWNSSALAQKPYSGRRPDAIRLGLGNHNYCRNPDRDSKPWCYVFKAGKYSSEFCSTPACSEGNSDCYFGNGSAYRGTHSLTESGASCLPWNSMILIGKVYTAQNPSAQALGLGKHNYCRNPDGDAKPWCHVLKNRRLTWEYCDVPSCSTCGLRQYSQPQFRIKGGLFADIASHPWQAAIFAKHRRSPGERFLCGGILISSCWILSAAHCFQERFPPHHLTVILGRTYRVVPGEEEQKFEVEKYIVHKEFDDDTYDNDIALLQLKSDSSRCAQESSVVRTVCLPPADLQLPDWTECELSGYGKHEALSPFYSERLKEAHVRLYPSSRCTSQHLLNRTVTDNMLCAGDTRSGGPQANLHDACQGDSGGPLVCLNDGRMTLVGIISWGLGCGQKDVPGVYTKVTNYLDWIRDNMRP
Sequence of Plasminogen (P00747 97-580 limits assumed): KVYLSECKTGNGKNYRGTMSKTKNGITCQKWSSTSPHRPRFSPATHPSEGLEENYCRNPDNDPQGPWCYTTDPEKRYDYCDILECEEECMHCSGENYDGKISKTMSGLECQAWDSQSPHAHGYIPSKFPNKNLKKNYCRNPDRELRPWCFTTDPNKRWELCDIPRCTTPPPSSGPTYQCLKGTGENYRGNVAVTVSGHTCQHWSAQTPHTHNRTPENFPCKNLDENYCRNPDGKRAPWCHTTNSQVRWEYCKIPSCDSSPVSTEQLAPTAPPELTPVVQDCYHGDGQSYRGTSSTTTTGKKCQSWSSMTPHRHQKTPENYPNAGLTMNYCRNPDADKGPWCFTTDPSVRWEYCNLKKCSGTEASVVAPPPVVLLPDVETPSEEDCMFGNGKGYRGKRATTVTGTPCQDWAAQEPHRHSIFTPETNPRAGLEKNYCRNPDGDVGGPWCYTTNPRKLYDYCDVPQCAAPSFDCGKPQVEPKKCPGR
Sequence of Plasminogen (P00747 581-810 limits assumed): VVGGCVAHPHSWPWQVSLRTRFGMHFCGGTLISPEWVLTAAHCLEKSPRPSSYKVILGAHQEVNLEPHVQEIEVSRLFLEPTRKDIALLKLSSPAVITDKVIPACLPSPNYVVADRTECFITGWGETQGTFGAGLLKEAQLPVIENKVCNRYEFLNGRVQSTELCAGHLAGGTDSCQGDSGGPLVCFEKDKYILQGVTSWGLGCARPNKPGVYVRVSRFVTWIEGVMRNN
Sequence of Plasma kallikrein (P03952 20-390 limits assumed): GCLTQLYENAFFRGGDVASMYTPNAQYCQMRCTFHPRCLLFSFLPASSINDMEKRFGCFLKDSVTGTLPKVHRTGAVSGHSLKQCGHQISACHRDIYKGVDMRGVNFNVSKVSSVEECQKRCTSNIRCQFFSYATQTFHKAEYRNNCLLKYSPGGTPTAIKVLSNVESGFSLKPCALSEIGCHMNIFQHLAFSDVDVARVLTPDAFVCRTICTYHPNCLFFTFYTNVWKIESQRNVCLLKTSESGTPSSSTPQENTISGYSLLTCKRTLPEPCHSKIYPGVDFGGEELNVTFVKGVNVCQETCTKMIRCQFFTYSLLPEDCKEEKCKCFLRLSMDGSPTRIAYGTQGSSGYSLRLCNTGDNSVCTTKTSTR
Sequence of Plasma kallikrein (P03952 391-638 limits assumed): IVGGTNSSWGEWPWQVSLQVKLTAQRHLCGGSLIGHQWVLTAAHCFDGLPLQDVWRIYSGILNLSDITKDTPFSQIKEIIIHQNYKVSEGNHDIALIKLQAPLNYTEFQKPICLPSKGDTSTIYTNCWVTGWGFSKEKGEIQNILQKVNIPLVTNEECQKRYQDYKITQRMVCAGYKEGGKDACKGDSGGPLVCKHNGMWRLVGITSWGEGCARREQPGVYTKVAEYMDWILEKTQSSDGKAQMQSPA
Sequence of Coagulation factor XI (P03951 19-387 limits assumed): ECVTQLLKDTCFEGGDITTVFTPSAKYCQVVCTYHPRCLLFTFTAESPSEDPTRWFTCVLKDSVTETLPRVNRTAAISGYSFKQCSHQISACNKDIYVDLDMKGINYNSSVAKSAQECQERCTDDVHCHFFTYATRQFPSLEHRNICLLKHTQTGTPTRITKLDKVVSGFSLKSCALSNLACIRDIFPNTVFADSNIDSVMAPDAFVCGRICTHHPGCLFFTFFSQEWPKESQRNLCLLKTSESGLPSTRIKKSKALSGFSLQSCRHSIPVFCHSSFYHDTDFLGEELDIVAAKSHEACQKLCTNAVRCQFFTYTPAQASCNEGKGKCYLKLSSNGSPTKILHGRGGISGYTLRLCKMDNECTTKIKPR
Sequence of Coagulation factor XI (P03951 388-625 limits assumed): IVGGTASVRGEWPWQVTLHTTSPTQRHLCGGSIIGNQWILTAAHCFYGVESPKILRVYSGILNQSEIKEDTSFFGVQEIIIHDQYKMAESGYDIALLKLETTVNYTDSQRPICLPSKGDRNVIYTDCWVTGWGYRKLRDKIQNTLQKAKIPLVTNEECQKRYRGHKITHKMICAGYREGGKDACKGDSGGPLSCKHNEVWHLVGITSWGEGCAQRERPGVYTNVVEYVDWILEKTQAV

| Compound | Activity (Mus musculus [1]) | Stability [2] | Stability [3] | Ratio IC50 [4] | Activity (Plasma [5]) | IC50 (Chymotrypsin) | EC1.5 (Plasma [6]) | Activity (Plasma [7]) | Activity (Mus musculus [8]) | IC50 (Plasma kallikrein) | Activity (Plasma [9]) | Stability [10] | Activity (RAW264.7 [11]) | Ratio IC50 [12] | Ratio IC50 [13] | Activity (Mus musculus [14]) | Activity (Plasma [15]) | Ratio IC50 [16] | Ratio (Plasma [17]) | IC50 (Plasminogen) | also measured |
| --- | --- | --- | --- | --- | --- | --- | --- | --- | --- | --- | --- | --- | --- | --- | --- | --- | --- | --- | --- | --- | --- |
| CC(C)N1CCN(c2ccc(C(=O)n3nc(-c4ccccn4)nc3N)c3ccccc23)CC1 | Dose-Dependent Effect | Stable | Stable | > 670 | 542% | > 25 µM | 68 µM | Active | Active | > 25 µM | Active | Stable | Non-Toxic | > 670 | 910 | Active | inactive | > 670 | 2 | > 25 µM | Activity (Mus musculus [18]): Active; Activity (Mus musculus [19]): ~30%; Ratio IC50 [20]: > 670; Activity (RAW264.7 [21]): Dose-Dependent Effect; Activity (RAW264.7 [22]): Dose-Dependent Effect; Ratio IC50 [23]: > 670; Ratio IC50 [24]: > 670; IC50 (Coagulation factor X): > 25 µM; IC50 (Trypsin): > 25 µM; IC50 (Coagulation factor XI): > 25 µM; Activity (RAW264.7 [25]): Active; Activity (RAW264.7 [26]): Active; IC50 (Prothrombin): 20 µM; IC50 [27]: > 25 µM; Ratio IC50 [28]: > 670 |
| CC(C)N1CCCN(c2ccc(C(=O)n3nc(-c4ccccn4)nc3N)c3ccccc23)CC1 | Dose-Dependent Effect | Stable | Stable | > 1190 | 905% | > 25 µM | 37 µM | Active | Active | > 25 µM | Active | Stable | Non-Toxic | > 1190 | 210 | Active | inactive | > 1190 | 2 | > 25 µM | Activity (Mus musculus [18]): Active; Activity (Mus musculus [19]): ~10%; Ratio IC50 [20]: > 1190; Activity (RAW264.7 [21]): Dose-Dependent Effect; Activity (RAW264.7 [22]): Dose-Dependent Effect; Ratio IC50 [23]: > 1190; Ratio IC50 [24]: > 1190; IC50 (Coagulation factor X): > 25 µM; IC50 (Trypsin): > 25 µM; IC50 (Coagulation factor XI): > 25 µM; Activity (RAW264.7 [25]): Active; Activity (RAW264.7 [26]): Active; IC50 (Prothrombin): 7 µM; IC50 [27]: > 25 µM; Ratio IC50 [28]: > 1190 |
